Blank lines part the entries; values can stand above or below the molecule they belong to.
What was measured:
[1] = Tmax in men plasma at 25 to 320 mg by LC/MS/MS analysis; assay type: ADME, organism-based; conditions: male, human
[2] = Half life in human plasma expressing CYP2C9*1/*1 polymorphism at 25 to 320 mg by LC/MS/MS analysis; assay type: ADME, organism-based
[3] = Cmax in human plasma expressing CYP2C9*1/*1 polymorphism at 25 to 320 mg by LC/MS/MS analysis; assay type: ADME, organism-based
[4] = AUC in human plasma expressing CYP2C8*2 allele carrier polymorphism at 25 to 320 mg by LC/MS/MS analysis; assay type: ADME, organism-based
[5] = Half life in human plasma expressing CYP2C8*4 allele carrier polymorphism at 25 to 320 mg by LC/MS/MS analysis; assay type: ADME, organism-based
[6] = Cmax in men plasma at 25 to 320 mg by LC/MS/MS analysis; assay type: ADME, organism-based; conditions: male, human
[7] = Cmax in human plasma expressing CYP2C9*2 allele carrier polymorphism at 25 to 320 mg by LC/MS/MS analysis; assay type: ADME, organism-based
[8] = AUC in human plasma expressing CYP2C8*4 allele carrier polymorphism at 25 to 320 mg by LC/MS/MS analysis; assay type: ADME, organism-based
[9] = Tmax in women plasma at 25 to 320 mg by LC/MS/MS analysis; assay type: ADME, organism-based; conditions: female, human
[10] = Tmax in human plasma expressing CYP2C9*1/*1 polymorphism at 25 to 320 mg by LC/MS/MS analysis; assay type: ADME, organism-based
[11] = Tmax in human plasma expressing CYP2C8*2 allele carrier polymorphism at 25 to 320 mg by LC/MS/MS analysis; assay type: ADME, organism-based
[12] = Half life in human plasma expressing CYP2C8*1/*1 polymorphism at 25 to 320 mg by LC/MS/MS analysis; assay type: ADME, organism-based
[13] = Tmax in human plasma expressing CYP2C8*1/*1 polymorphism at 25 to 320 mg by LC/MS/MS analysis; assay type: ADME, organism-based
[14] = Half life in human plasma expressing CYP2C9*3 allele carrier polymorphism at 25 to 320 mg by LC/MS/MS analysis; assay type: ADME, organism-based
[15] = Tmax in human plasma expressing CYP2C8*4 allele carrier polymorphism at 25 to 320 mg by LC/MS/MS analysis; assay type: ADME, organism-based
[16] = AUC in human plasma expressing CYP2C8*1/*1 polymorphism at 25 to 320 mg by LC/MS/MS analysis; assay type: ADME, organism-based
[17] = Half life in women plasma at 25 to 320 mg by LC/MS/MS analysis; assay type: ADME, organism-based; conditions: female, human
[18] = AUC in women plasma at 25 to 320 mg by LC/MS/MS analysis; assay type: ADME, organism-based; conditions: female, human
[19] = Cmax in human plasma expressing CYP2C8*1/*1 polymorphism at 25 to 320 mg by LC/MS/MS analysis; assay type: ADME, organism-based
[20] = AUC in human plasma expressing CYP2C9*2 allele carrier polymorphism at 25 to 320 mg by LC/MS/MS analysis; assay type: ADME, organism-based
[21] = Cmax in women plasma at 25 to 320 mg by LC/MS/MS analysis; assay type: ADME, organism-based; conditions: female, human
[22] = Tmax in human plasma expressing CYP2C9*3 allele carrier polymorphism at 25 to 320 mg by LC/MS/MS analysis; assay type: ADME, organism-based
[23] = Cmax in human plasma expressing CYP2C8*2 allele carrier polymorphism at 25 to 320 mg by LC/MS/MS analysis; assay type: ADME, organism-based
[24] = Half life in men plasma at 25 to 320 mg by LC/MS/MS analysis; assay type: ADME, organism-based; conditions: male, human
Homo sapiens [25] = organism: Homo sapiens; test: AUC in human plasma expressing CYP2C9*3 allele carrier polymorphism at 25 to 320 mg by LC/MS/MS analysis; assay type: ADME, organism-based; conditions: in vivo
[26] = Cmax in human plasma expressing CYP2C8*4 allele carrier polymorphism at 25 to 320 mg by LC/MS/MS analysis; assay type: ADME, organism-based
[27] = Cmax in human plasma expressing CYP2C9*3 allele carrier polymorphism at 25 to 320 mg by LC/MS/MS analysis; assay type: ADME, organism-based
[28] = Half life in human plasma expressing CYP2C8*3 allele carrier polymorphism at 25 to 320 mg by LC/MS/MS analysis; assay type: ADME, organism-based
[29] = Tmax in human plasma expressing CYP2C9*2 allele carrier polymorphism at 25 to 320 mg by LC/MS/MS analysis; assay type: ADME, organism-based
[30] = AUC in human plasma expressing CYP2C8*3 allele carrier polymorphism at 25 to 320 mg by LC/MS/MS analysis; assay type: ADME, organism-based
Homo sapiens [31] = organism: Homo sapiens; test: Cmax in human plasma expressing CYP2C8*3 allele carrier polymorphism at 25 to 320 mg by LC/MS/MS analysis; assay type: ADME, organism-based; conditions: in vivo
[32] = AUC in men plasma at 25 to 320 mg by LC/MS/MS analysis; assay type: ADME, organism-based; conditions: male, human
[33] = Tmax in human plasma expressing CYP2C8*3 allele carrier polymorphism at 25 to 320 mg by LC/MS/MS analysis; assay type: ADME, organism-based
[34] = AUC in human plasma expressing CYP2C9*1/*1 polymorphism at 25 to 320 mg by LC/MS/MS analysis; assay type: ADME, organism-based
[35] = Half life in human plasma expressing CYP2C9*3 allele carrier polymorphism at 50 mg by LC/MS/MS analysis
[36] = Clearance in human plasma expressing CYP2C8*1/*1 polymorphism at 50 mg by LC/MS/MS analysis; assay type: ADME, organism-based
[37] = Tmax in human plasma expressing CYP2C8*1/*1 polymorphism at 50 mg by LC/MS/MS analysis; assay type: ADME, organism-based
[38] = Half life in women plasma at 50 mg by LC/MS/MS analysis; conditions: female, human
[39] = Tmax in human plasma expressing CYP2C9*1/*1 polymorphism at 50 mg by LC/MS/MS analysis; assay type: ADME, organism-based
[40] = AUC in human plasma expressing CYP2C9*3 allele carrier polymorphism at 50 mg by LC/MS/MS analysis; assay type: ADME, organism-based
[41] = Cmax in human plasma expressing CYP2C8*4 allele carrier polymorphism at 50 mg by LC/MS/MS analysis; assay type: ADME, organism-based; parameters: dose 50 mg
[42] = Half life in human plasma expressing CYP2C9*1/*1 polymorphism at 50 mg by LC/MS/MS analysis
[43] = Half life in human plasma expressing CYP2C8*3 allele carrier polymorphism at 50 mg by LC/MS/MS analysis
[44] = Clearance in men plasma at 50 mg by LC/MS/MS analysis; assay type: ADME, organism-based; conditions: male, human
[45] = Clearance in human plasma expressing CYP2C8*3 allele carrier polymorphism at 50 mg by LC/MS/MS analysis; assay type: ADME, organism-based
[46] = AUC in women plasma at 50 mg by LC/MS/MS analysis; assay type: ADME, organism-based; conditions: female, human
[47] = Cmax in men plasma at 50 mg by LC/MS/MS analysis; assay type: ADME, organism-based; parameters: dose 50 mg; conditions: male, human
[48] = Clearance in human plasma expressing CYP2C9*1/*1 polymorphism at 50 mg by LC/MS/MS analysis; assay type: ADME, organism-based
[49] = AUC in human plasma expressing CYP2C9*2 allele carrier polymorphism at 50 mg by LC/MS/MS analysis; assay type: ADME, organism-based
[50] = AUC in men plasma at 50 mg by LC/MS/MS analysis; assay type: ADME, organism-based; conditions: male, human
[51] = Clearance in human plasma expressing CYP2C9*2 allele carrier polymorphism at 50 mg by LC/MS/MS analysis; assay type: ADME, organism-based
[52] = Cmax in human plasma expressing CYP2C8*1/*1 polymorphism at 50 mg by LC/MS/MS analysis; assay type: ADME, organism-based; parameters: dose 50 mg
[53] = AUC in human plasma expressing CYP2C8*4 allele carrier polymorphism at 50 mg by LC/MS/MS analysis; assay type: ADME, organism-based
[54] = Tmax in human plasma expressing CYP2C9*3 allele carrier polymorphism at 50 mg by LC/MS/MS analysis; assay type: ADME, organism-based
[55] = Tmax in human plasma expressing CYP2C8*3 allele carrier polymorphism at 50 mg by LC/MS/MS analysis; assay type: ADME, organism-based
[56] = Half life in men plasma at 50 mg by LC/MS/MS analysis; conditions: male, human
[57] = Tmax in men plasma at 50 mg by LC/MS/MS analysis; assay type: ADME, organism-based; conditions: male, human
[58] = AUC in human plasma expressing CYP2C8*3 allele carrier polymorphism at 50 mg by LC/MS/MS analysis; assay type: ADME, organism-based
[59] = Clearance in human plasma expressing CYP2C9*3 allele carrier polymorphism at 50 mg by LC/MS/MS analysis; assay type: ADME, organism-based
[60] = Half life in human plasma expressing CYP2C9*2 allele carrier polymorphism at 50 mg by LC/MS/MS analysis
[61] = Half life in human plasma expressing CYP2C8*1/*1 polymorphism at 50 mg by LC/MS/MS analysis
[62] = Tmax in human plasma expressing CYP2C8*4 allele carrier polymorphism at 50 mg by LC/MS/MS analysis; assay type: ADME, organism-based
[63] = Half life in human plasma expressing CYP2C8*4 allele carrier polymorphism at 50 mg by LC/MS/MS analysis
[64] = Clearance in women plasma at 50 mg by LC/MS/MS analysis; assay type: ADME, organism-based; conditions: female, human
[65] = AUC in human plasma expressing CYP2C8*1/*1 polymorphism at 50 mg by LC/MS/MS analysis; assay type: ADME, organism-based
[66] = Tmax in women plasma at 50 mg by LC/MS/MS analysis; assay type: ADME, organism-based; conditions: female, human
[67] = Clearance in human plasma expressing CYP2C8*4 allele carrier polymorphism at 50 mg by LC/MS/MS analysis; assay type: ADME, organism-based
[68] = Cmax in human plasma expressing CYP2C9*1/*1 polymorphism at 50 mg by LC/MS/MS analysis; assay type: ADME, organism-based; parameters: dose 50 mg
[69] = AUC in human plasma expressing CYP2C9*1/*1 polymorphism at 50 mg by LC/MS/MS analysis; assay type: ADME, organism-based
[70] = Cmax in human plasma expressing CYP2C8*3 allele carrier polymorphism at 50 mg by LC/MS/MS analysis; assay type: ADME, organism-based; parameters: dose 50 mg
[71] = Tmax in human plasma expressing CYP2C9*2 allele carrier polymorphism at 50 mg by LC/MS/MS analysis; assay type: ADME, organism-based

Tmax [1]: 3.2 h
half-life [2]: 9.1 h
Cmax [3]: 4880 ng/mL
AUC [4]: 55100 ng·h/mL
half-life [5]: 7.6 h
Cmax [6]: 4590 ng/mL
Cmax [7]: 4840 ng/mL
AUC [8]: 39600 ng·h/mL
Tmax [9]: 3.2 h
Tmax [10]: 3.3 h
Tmax [11]: 3.1 h
half-life [12]: 9.3 h
Tmax [13]: 3.3 h
half-life [14]: 9.9 h
Tmax [15]: 2.8 h
AUC [16]: 36500 ng·h/mL
half-life [17]: 9.4 h
AUC [18]: 38600 ng·h/mL
Cmax [19]: 4550 ng/mL
AUC [20]: 38800 ng·h/mL
Cmax [21]: 4910 ng/mL
Tmax [22]: 3 h
Cmax [23]: 6140 ng/mL
half-life [24]: 9.1 h
AUC (Homo sapiens [25]): 31449 ng·h/mL
Cmax [26]: 4860 ng/mL
Cmax [27]: 4010 ng/mL
half-life [28]: 9.4 h
Tmax [29]: 3 h
AUC [30]: 37400 ng·h/mL
Cmax (Homo sapiens [31]): 4711 ng/mL
AUC [32]: 38800 ng·h/mL
Tmax [33]: 3 h
AUC [34]: 40600 ng·h/mL
SMILES: CCCCC(=O)N(Cc1ccc(-c2ccccc2-c2nnn[nH]2)cc1)[C@H](C(=O)O)C(C)C

half-life [35]: 3.1 h
clearance [36]: 28.3 mL/min/kg
Tmax [37]: 1.3 h
half-life [38]: 2.4 h
Tmax [39]: 1.3 h
AUC [40]: 637 ng·h/mL
Cmax [41]: 345 ng/mL
half-life [42]: 2.3 h
half-life [43]: 2.5 h
clearance [44]: 27.7 mL/min/kg
clearance [45]: 31.7 mL/min/kg
AUC [46]: 519 ng·h/mL
Cmax [47]: 234 ng/mL
clearance [48]: 30 mL/min/kg
AUC [49]: 366 ng·h/mL
AUC [50]: 455 ng·h/mL
clearance [51]: 31.7 mL/min/kg
Cmax [52]: 263 ng/mL
AUC [53]: 494 ng·h/mL
Tmax [54]: 1 h
Tmax [55]: 1 h
half-life [56]: 2.5 h
Tmax [57]: 1.2 h
AUC [58]: 413 ng·h/mL
clearance [59]: 21.7 mL/min/kg
half-life [60]: 2.4 h
half-life [61]: 2.3 h
Tmax [62]: 0.9 h
half-life [63]: 2.7 h
clearance [64]: 30.3 mL/min/kg
AUC [65]: 504 ng·h/mL
Tmax [66]: 1.2 h
clearance [67]: 26.7 mL/min/kg
Cmax [68]: 258 ng/mL
AUC [69]: 473 ng·h/mL
Cmax [70]: 231 ng/mL
Tmax [71]: 1.1 h
SMILES: CCCCc1nc(Cl)c(CO)n1Cc1ccc(-c2ccccc2-c2nn[nH]n2)cc1 [LOSARTAN]

Source: ChEMBL document CHEMBL3526037, “Evaluation of the relationship between sex, polymorphisms in CYP2C8 and CYP2C9, and pharmacokinetics of angiotensin receptor blockers” (Drug Metab Dispos, 2013)
